For the test, the target named is T1, KCNQ2/3 channels (Homo sapiens, UniProt O43525+O43526).
T1 construct: expressed in transfected cells
As to the kind of experiment: Fluorescence assay using a voltage sensitive dye (fluorimetry). The following applies: CHO-K1 cells expressing KCNQ2/3 channels; for EC50: agonistic activity; for Emax: read-out: Fluorimetry % efficacy (retigabine 50 μM = 100%). The format is cell-based. The method, boiled down: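 CHO-K1 cells expressing human KCNQ2/3, loaded 45 min with red membrane-potential dye in ES buffer pH 7.4 (1 mM KCl), compound 30 min at room temperature. Fluorescence (525/560 nm) read before (F1) and at peak after KCl to 92 mM final (F2); agonism from F2/F1 change, EC50 fitted.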

This is an account of results in US8586755B2, “Substituted nicotinamides as KCNQ2/3 modulators” (Grünenthal GmbH, priority 2009, dated 2013).

What is called EC50 is the concentration needed to bring the measured effect to its halfway point. A lower EC50 goes with an effect from little substance.

Each structure is given as a SMILES string.

For `O=C(NCc1ccc2c(c1)N(CC1CC1)CCO2)c1cccnc1SCCCc1ccc(F)cc1` [compound 160, N-[[4-(Cyclopropyl-methyl)-3,4-dihydro-2H-[1,4]benzoxazin-6-yl]-methyl]-2-[3-(4-fluorophenyl)-propylsulfanyl]-pyridine-3-carboxylic acid amide], the EC50 was determined as 228 nM. Also, the Emax (retigabine 50 μM = 100%) was determined as 74%. In turn, `CCN1CCOc2ccc(CNC(=O)c3cccnc3SCCCc3ccc(F)cc3)cc21` [compound 161, N-[(4-Ethyl-3,4-dihydro-2H-[1,4]benzoxazin-6-yl)-methyl]-2-[3-(4-fluorophenyl)-propylsulfanyl]-pyridine-3-carboxylic acid amide] had an EC50 of 145 nM. In addition, the Emax (retigabine 50 μM = 100%) is 67%. Compound `CN1CCOc2ccc(CNC(=O)c3cccnc3SCCCc3ccc(F)cc3)cc21` [compound 162, 2-[3-(4-Fluorophenyl)-propylsulfanyl]-N-[(4-methyl-3,4-dihydro-2H-[1,4]benzoxazin-6-yl)-methyl]-pyridine-3-carboxylic acid amide] gave an EC50 of 166 nM. For the setting “retigabine 50 μM = 100%”, the Emax was 83%.

`CC(C)(CCNC(=O)c1cccnc1SCCCc1ccc(F)cc1)c1ccccc1` [compound 163, 2-[3-(4-Fluorophenyl)-propylsulfanyl]-N-(3-methyl-3-phenyl-butyl)-pyridine-3-carboxylic acid amide] returned an EC50 of 537 nM. The Emax (retigabine 50 μM = 100%) came out at 89%. The corresponding values for `O=C(NCc1ccc(F)cc1)c1cccnc1SCCC(F)(F)c1cccc(C(F)(F)F)c1` [compound 165, 2-[[3,3-Difluoro-3-[3-(trifluoromethyl)phenyl]-propyl]sulfanyl]-N-[(4-fluorophenyl)-methyl]-pyridine-3-carboxylic acid amide] are 30 nM and 119%.

`CC(C)(C)CCNC(=O)c1cccnc1SCCC(F)(F)c1cccc(C(F)(F)F)c1` [compound 166, 2-[[3,3-Difluoro-3-[3-(trifluoromethyl)phenyl]-propyl]sulfanyl]-N-(3,3-dimethyl-butyl)-pyridine-3-carboxylic acid amide] had a concentration giving a half-maximal response (EC50) of 46 nM. Besides, where the note is “retigabine 50 μM = 100%”, the Emax was 206%. For the compound `CC(C)(C)CCNC(=O)c1cccnc1SCC(=O)Cc1ccccc1` [compound 167], the half-maximal effective concentration (EC50) stood at 2710 nM. For the same compound, for the setting “retigabine 50 μM = 100%”, the “Fluorimetry % efficacy (retigabine 50 μM = 100%)” value is reported as 77%.

With `O=C(NCc1cccc(F)c1)c1cccnc1SCCC(F)(F)c1ccc(F)cc1` [compound 168, 2-[[3,3-Difluoro-3-(4-fluorophenyl)-propyl]sulfanyl]-N-[(3-fluorophenyl)-methyl]-pyridine-3-carboxylic acid amide], the half-maximal effective concentration (EC50) worked out at 17 nM. For the same compound, the Emax (retigabine 50 μM = 100%) worked out at 110%. On the same counts, the results for `COCCNC(=O)c1cccnc1SCCC(F)(F)c1ccc(F)cc1` [compound 171, 2-[[3,3-Difluoro-3-(4-fluorophenyl)-propyl]sulfanyl]-N-(2-methoxy-ethyl)-pyridine-3-carboxylic acid amide] are 432 nM and 181%. On the same counts, the results for `COCCNC(=O)c1cccnc1SCCCc1ccc(F)cc1` [compound 172, 2-[3-(4-Fluorophenyl)-propylsulfanyl]-N-(2-methoxy-ethyl)-pyridine-3-carboxylic acid amide] are 1050 nM and 196%. As to `O=C(NCc1ccc(F)cc1O)c1cccnc1SCCCc1ccc(F)cc1` [compound 173, N-[(4-Fluoro-2-hydroxy-phenyl)-methyl]-2-[3-(4-fluorophenyl)-propylsulfanyl]-pyridine-3-carboxylic acid amide], a half-maximal response (EC50) required 156 nM. For the setting “retigabine 50 μM = 100%”, the Emax came to 185%. On the same counts, the results for `O=C(NCc1ccco1)c1cccnc1SCCCc1ccc(F)cc1` [compound 174, 2-[3-(4-Fluorophenyl)-propylsulfanyl]-N-(furan-2-yl-methyl)-pyridine-3-carboxylic acid amide] are 134 nM and 213%.

As for `Cc1ccc(CNC(=O)c2cccnc2SCCCc2ccc(F)cc2)o1` [compound 175, 2-[3-(4-Fluorophenyl)-propylsulfanyl]-N-[(5-methyl-furan-2-yl)-methyl]-pyridine-3-carboxylic acid amide], the half-maximal effective concentration (EC50) amounted to 126 nM. In addition, the Emax (retigabine 50 μM = 100%) came to 173%. As for `CC(CCc1ccc(F)cc1)Sc1ncccc1C(=O)NCc1ccc(F)cc1` (centres unmarked) [compound 176, N-[(4-Fluorophenyl)-methyl]-2-[[3-(4-fluorophenyl)-1-methyl-propyl]sulfanyl]-pyridine-3-carboxylic acid amide], a half-maximal effect (EC50) was put at 40 nM. The Emax (retigabine 50 μM = 100%) was found to be 108%. For the compound `CC(C)CCNC(=O)c1cccnc1SC(C)CCc1ccc(F)cc1` (centres unmarked) [compound 177, 2-[[3-(4-Fluorophenyl)-1-methyl-propyl]sulfanyl]-N-(3-methyl-butyl)-pyridine-3-carboxylic acid amide], it took 76 nM to reach a half-maximal effect (EC50). Moreover, the Emax (retigabine 50 μM = 100%) came out at 192%. On the same counts, the results for `CC(CCc1ccc(F)cc1)Sc1ncccc1C(=O)NCC1C2CCC1CC2` (centres unmarked) [compound 178, N-(7-Bicyclo[2.2.1]heptanyl-methyl)-2-[[3-(4-fluorophenyl)-1-methyl-propyl]sulfanyl]-pyridine-3-carboxylic acid amide] are 96 nM and 270%. As for `O=C(NCC1CCCO1)c1cccnc1SCCC(F)(F)c1ccc(F)cc1` (centres unmarked) [compound 179, 2-[[3,3-Difluoro-3-(4-fluorophenyl)-propyl]sulfanyl]-N-(tetrahydro-furan-2-yl-methyl)-pyridine-3-carboxylic acid amide], the EC50 amounted to 378 nM. Also, the Emax (retigabine 50 μM = 100%) amounted to 234%. In the case of `O=C(NCC1CCCO1)c1cccnc1SCCCc1ccc(F)cc1` (centres unmarked) [compound 181, 2-[3-(4-Fluorophenyl)-propylsulfanyl]-N-(tetrahydro-furan-2-yl-methyl)-pyridine-3-carboxylic acid amide], the EC50 stood at 1550 nM. For the same compound, the Emax (retigabine 50 μM = 100%) was determined as 254%. `COC(CNC(=O)c1cccnc1SCCCc1ccc(F)cc1)C(C)(C)C` (centres unmarked) [compound 182, 2-[3-(4-Fluorophenyl)-propylsulfanyl]-N-(2-methoxy-3,3-dimethyl-butyl)-pyridine-3-carboxylic acid amide]: the EC50 was 366 nM. For the setting “retigabine 50 μM = 100%”, the Emax was found to be 110%.

On to `Cc1cccc(CNC(=O)c2cccnc2SCCC(F)(F)c2ccc(F)cc2)c1` [compound 183, 2-[[3,3-Difluoro-3-(4-fluorophenyl)-propyl]sulfanyl]-N-(m-tolyl-methyl)-pyridine-3-carboxylic acid amide], for which the EC50 was found to be 43 nM. For the same compound, the Emax (retigabine 50 μM = 100%) worked out at 109%. As to `Cc1cc(C)cc(CNC(=O)c2cccnc2SCCC(F)(F)c2ccc(F)cc2)c1` [compound 184, 2-[[3,3-Difluoro-3-(4-fluorophenyl)-propyl]sulfanyl]-N-[(3,5-dimethyl-phenyl)-methyl]-pyridine-3-carboxylic acid amide], the Emax (retigabine 50 μM = 100%) came out at 23%. With `CCCNC(=O)c1cccnc1SCCC(F)(F)c1ccc(F)cc1` [compound 185, 2-[[3,3-Difluoro-3-(4-fluorophenyl)-propyl]sulfanyl]-N-propyl-pyridine-3-carboxylic acid amide], a half-maximal effect (EC50) was put at 167 nM. In addition, the Emax (retigabine 50 μM = 100%) is 212%. Turning to `CCCCCCNC(=O)c1cccnc1SCCC(F)(F)c1ccc(F)cc1` [compound 186, 2-[[3,3-Difluoro-3-(4-fluorophenyl)-propyl]sulfanyl]-N-hexyl-pyridine-3-carboxylic acid amide], the 50% effective concentration (EC50) turned out to be 236 nM. Besides, for the setting “retigabine 50 μM = 100%”, the Emax came to 191%. On the same counts, the results for `O=C(NCC1CCOC1)c1cccnc1SCCC(F)(F)c1ccc(F)cc1` (centres unmarked) [compound 187, 2-[[3,3-Difluoro-3-(4-fluorophenyl)-propyl]sulfanyl]-N-(tetrahydro-furan-3-yl-methyl)-pyridine-3-carboxylic acid amide] are 805 nM and 231%. On the same counts, the results for `O=C(NCC1CCCOC1)c1cccnc1SCCC(F)(F)c1ccc(F)cc1` (centres unmarked) [compound 188, 2-[[3,3-Difluoro-3-(4-fluorophenyl)-propyl]sulfanyl]-N-(tetrahydro-pyran-3-yl-methyl)-pyridine-3-carboxylic acid amide] are 315 nM and 210%. The corresponding values for `O=C(NCC1CCOCC1)c1cccnc1SCCC(F)(F)c1ccc(F)cc1` [compound 189, 2-[[3,3-Difluoro-3-(4-fluorophenyl)-propyl]sulfanyl]-N-(tetrahydro-pyran-4-yl-methyl)-pyridine-3-carboxylic acid amide] are 287 nM and 161%. Compound `O=C(NCc1ccco1)c1cccnc1SCCC(F)(F)c1ccc(F)cc1` [compound 190, 2-[[3,3-Difluoro-3-(4-fluorophenyl)-propyl]sulfanyl]-N-(furan-2-yl-methyl)-pyridine-3-carboxylic acid amide] gave a half-maximal effective concentration (EC50) of 26 nM. For the same compound, the Emax (retigabine 50 μM = 100%) was 214%. `Cc1ccc(CNC(=O)c2cccnc2SCCC(F)(F)c2ccc(F)cc2)o1` [compound 191, 2-[[3,3-Difluoro-3-(4-fluorophenyl)-propyl]sulfanyl]-N-[(5-methyl-furan-2-yl)-methyl]-pyridine-3-carboxylic acid amide]: a half-maximal response (EC50) required 37 nM. For the same compound, the Emax (retigabine 50 μM = 100%) is 202%. On the same counts, the results for `CCCCCNC(=O)c1cccnc1SCCC(F)(F)c1ccc(F)cc1` [compound 192, 2-[[3,3-Difluoro-3-(4-fluorophenyl)-propyl]sulfanyl]-N-pentyl-pyridine-3-carboxylic acid amide] are 32 nM and 195%. On the same counts, the results for `COC(C)CCNC(=O)c1cccnc1SCCC(F)(F)c1ccc(F)cc1` (centres unmarked) [compound 193, 2-[[3,3-Difluoro-3-(4-fluorophenyl)-propyl]sulfanyl]-N-(3-methoxy-butyl)-pyridine-3-carboxylic acid amide] are 371 nM and 206%.
